From US8445676B2, “Pyrrolotriazine kinase inhibitors” (Bristol-Myers Squibb Company, priority 2008, dated 2013) come the findings set out here.

A value given as a limit tells only on which side of the number the result lay.

The assay has as its target JAK2 (Homo sapiens, UniProt O60674). Description: JAK2 Tyrosine Kinase Assay. The assay is classed as biochemical. The conditions noted are these: list of named compounds; read-out: IC50 in the JAK2 assay. As for the experimental part: JAK2 Tyrosine Kinase Assay
The assays were performed in V-bottom 384-well plates. […] The reaction was initiated by the combination of JAK2 with substrates and test compounds. The reaction was incubated at room temperature for 60 min. and terminated by adding 45 μl of 35 mM EDTA to each sample. The reaction mixture was analyzed on the Caliper LabChip 3000 by electrophoretic separation of the fluorescent substrate and phosphorylated product. […] Compounds were dissolved at 10 mM in dimethylsulfoxide (DMSO) and evaluated at eleven concentrations, each in duplicate. IC50 values were derived by non-linear regression analysis

Chain of JAK2 (O60674 whole entry): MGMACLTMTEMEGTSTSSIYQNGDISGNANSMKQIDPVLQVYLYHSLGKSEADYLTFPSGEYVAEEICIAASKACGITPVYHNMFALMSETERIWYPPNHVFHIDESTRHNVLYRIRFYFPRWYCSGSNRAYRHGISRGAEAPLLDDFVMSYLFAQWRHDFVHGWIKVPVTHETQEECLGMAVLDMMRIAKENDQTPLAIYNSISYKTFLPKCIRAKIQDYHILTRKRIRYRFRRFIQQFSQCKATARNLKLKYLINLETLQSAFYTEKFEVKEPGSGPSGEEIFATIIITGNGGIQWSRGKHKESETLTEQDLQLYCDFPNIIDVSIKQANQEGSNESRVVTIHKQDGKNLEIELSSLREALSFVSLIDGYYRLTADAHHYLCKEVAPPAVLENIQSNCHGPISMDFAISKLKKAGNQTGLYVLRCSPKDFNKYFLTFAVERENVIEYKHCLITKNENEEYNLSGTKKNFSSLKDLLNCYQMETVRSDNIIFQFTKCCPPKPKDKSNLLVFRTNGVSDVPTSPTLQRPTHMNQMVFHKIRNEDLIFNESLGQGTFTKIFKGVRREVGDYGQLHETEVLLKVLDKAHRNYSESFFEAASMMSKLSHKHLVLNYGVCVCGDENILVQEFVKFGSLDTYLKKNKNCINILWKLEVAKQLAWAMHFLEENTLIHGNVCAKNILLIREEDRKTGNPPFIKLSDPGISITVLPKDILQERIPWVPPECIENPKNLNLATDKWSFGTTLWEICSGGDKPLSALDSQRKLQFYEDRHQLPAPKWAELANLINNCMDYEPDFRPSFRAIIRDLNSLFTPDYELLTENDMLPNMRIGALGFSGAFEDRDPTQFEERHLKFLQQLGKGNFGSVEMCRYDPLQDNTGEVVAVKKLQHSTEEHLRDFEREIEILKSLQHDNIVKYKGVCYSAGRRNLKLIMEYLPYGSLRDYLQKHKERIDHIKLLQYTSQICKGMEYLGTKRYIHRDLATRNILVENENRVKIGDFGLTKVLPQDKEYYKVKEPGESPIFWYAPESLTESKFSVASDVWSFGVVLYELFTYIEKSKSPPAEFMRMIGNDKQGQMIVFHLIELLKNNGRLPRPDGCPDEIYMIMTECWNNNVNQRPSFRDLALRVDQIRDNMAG

Take `Cc1cc(Nc2nc(N3CCN(C(=O)Cc4cccc(Cl)c4)CC3)nn3cccc23)n[nH]1` [2-(4-((3-chlorophenyl)acetyl)-1-piperazinyl)-N-(5-methyl-1H-pyrazol-3-yl)pyrrolo[2,1-f][1,2,4]triazin-4-amine]: the IC50 (commonly the concentration that gives 50% inhibition) is no more than 5 nM.

For the compound `Cc1cc(Nc2nc(N3CCN(C(=O)C(C)(C)c4ccc(Cl)cc4)CC3)nn3cccc23)n[nH]1` [2-(4-(2-(4-chlorophenyl)-2-methylpropanoyl)-1-piperazinyl)-N-(5-methyl-1H-pyrazol-3-yl)pyrrolo[2,1-f][1,2,4]triazin-4-amine], the IC50 was no more than 5 nM. In the case of `CC[C@H](C(=O)N1CCN(c2nc(Nc3cc(C)[nH]n3)c3cccn3n2)CC1)c1ccccc1` [N-(5-methyl-1H-pyrazol-3-yl)-2-(4-((2S)-2-phenylbutanoyl)-1-piperazinyl)pyrrolo[2,1-f][1,2,4]triazin-4-amine], the IC50 was no more than 5 nM. `Cc1cccc(C(=O)N2CCN(c3nc(Nc4cc(C)[nH]n4)c4cccn4n3)CC2)c1` [2-(4-(3-methylbenzoyl)-1-piperazinyl)-N-(5-methyl-1H-pyrazol-3-yl)pyrrolo[2,1-f][1,2,4]triazin-4-amine]: the IC50 was no more than 5 nM. On to `Cc1cc(Nc2nc(N3CCN(C(=O)c4cccc(C(F)(F)F)c4)CC3)nn3cccc23)n[nH]1` [N-(5-methyl-1H-pyrazol-3-yl)-2-(4-(3-(trifluoromethyl)benzoyl)-1-piperazinyl)pyrrolo[2,1-f][1,2,4]triazin-4-amine], for which the IC50 is no more than 5 nM. `Cc1cc(Nc2nc(N3CCN(C(=O)c4cnon4)CC3)nn3cccc23)n[nH]1` [N-(5-methyl-1H-pyrazol-3-yl)-2-(4-(1,2,5-oxadiazol-3-ylcarbonyl)-1-piperazinyl)pyrrolo[2,1-f][1,2,4]triazin-4-amine]: the IC50 is no more than 5 nM. In the case of `Cc1cc(Nc2nc(N3CCN(C(=O)c4ccccc4Oc4ccccc4)CC3)nn3cccc23)n[nH]1` [N-(5-methyl-1H-pyrazol-3-yl)-2-(4-(2-phenoxybenzoyl)-1-piperazinyl)pyrrolo[2,1-f][1,2,4]triazin-4-amine], the IC50 was no more than 5 nM.

`Cc1cc(Nc2nc(N3CCN(C(=O)c4cc(F)c(F)cc4Cl)CC3)nn3cccc23)n[nH]1` [2-(4-(2-chloro-4,5-difluorobenzoyl)-1-piperazinyl)-N-(5-methyl-1H-pyrazol-3-yl)pyrrolo[2,1-f][1,2,4]triazin-4-amine]: the IC50 is no more than 5 nM. As for `Cc1cc(Nc2nc(N3CCN(C(=O)Cc4ccccc4C#N)CC3)nn3cccc23)n[nH]1` [2-(2-(4-(4-((5-methyl-1H-pyrazol-3-yl)amino)pyrrolo[2,1-f][1,2,4]triazin-2-yl)-1-piperazinyl)-2-oxoethyl)benzonitrile], the IC50 was no more than 5 nM. Take `Cc1cc(Nc2nc(N3CCN(C(=O)[C@@H](NC(=O)OC(C)(C)C)c4ccc(F)cc4)CC3)nn3cccc23)n[nH]1` [tert-butyl((1S)-1-(4-fluorophenyl)-2-(4-(4-((5-methyl-1H-pyrazol-3-yl)amino)pyrrolo[2,1-f][1,2,4]triazin-2-yl)-1-piperazinyl)-2-oxoethyl)carbamate]: the IC50 was no more than 5 nM. For `COc1ccc(CC(=O)N2CCN(c3nc(Nc4cc(C)[nH]n4)c4cccn4n3)CC2)cc1` [2-(4-((4-methoxyphenyl)acetyl)-1-piperazinyl)-N-(5-methyl-1H-pyrazol-3-yl)pyrrolo[2,1-f][1,2,4]triazin-4-amine], the IC50 was no more than 5 nM.

Take `Cc1cc(Nc2nc(N3CCN(C(=O)Cc4cccc(C(F)(F)F)c4)CC3)nn3cccc23)n[nH]1` [N-(5-methyl-1H-pyrazol-3-yl)-2-(4-((3-(trifluoromethyl)phenyl)acetyl)-1-piperazinyl)pyrrolo[2,1-f][1,2,4]triazin-4-amine]: the IC50 was no more than 5 nM.

As for `Cc1cc(Nc2nc(N3CCN(C(=O)c4csnn4)CC3)nn3cccc23)n[nH]1` [N-(5-methyl-1H-pyrazol-3-yl)-2-(4-(1,2,3-thiadiazol-4-ylcarbonyl)-1-piperazinyl)pyrrolo[2,1-f][1,2,4]triazin-4-amine], the IC50 is no more than 5 nM. For `CO[C@@H](C(=O)N1CCN(c2nc(Nc3cc(C)[nH]n3)c3cccn3n2)CC1)c1ccccc1` [2-(4-((2R)-2-methoxy-2-phenylacetyl)-1-piperazinyl)-N-(5-methyl-1H-pyrazol-3-yl)pyrrolo[2,1-f][1,2,4]triazin-4-amine], the IC50 is no more than 5 nM.

As for `Cc1cc(Nc2nc(N3CCN(C(=O)c4ccccc4-c4c(C)n[nH]c4C)CC3)nn3cccc23)n[nH]1` [2-(4-(2-(3,5-dimethyl-1H-pyrazol-4-yl)benzoyl)-1-piperazinyl)-N-(5-methyl-1H-pyrazol-3-yl)pyrrolo[2,1-f][1,2,4]triazin-4-amine], the IC50 was no more than 5 nM. Regarding `Cc1cc(Nc2nc(N3CCN(C(=O)C(c4ccc(Cl)cc4)C(C)C)CC3)nn3cccc23)n[nH]1` (centres unmarked) [2-(4-(2-(4-chlorophenyl)-3-methylbutanoyl)-1-piperazinyl)-N-(5-methyl-1H-pyrazol-3-yl)pyrrolo[2,1-f][1,2,4]triazin-4-amine], the IC50 is no more than 5 nM. For `Cc1cc(Nc2nc(N3CCN(C(=O)c4c(F)cccc4C(F)(F)F)CC3)nn3cccc23)n[nH]1` [2-(4-(2-fluoro-6-(trifluoromethyl)benzoyl)-1-piperazinyl)-N-(5-methyl-1H-pyrazol-3-yl)pyrrolo[2,1-f][1,2,4]triazin-4-amine], the IC50 was no more than 5 nM. For `Cc1cc(Nc2nc(N3CCN(C(=O)c4cc(Cl)ccc4Cl)CC3)nn3cccc23)n[nH]1` [2-(4-(2,5-dichlorobenzoyl)-1-piperazinyl)-N-(5-methyl-1H-pyrazol-3-yl)pyrrolo[2,1-f][1,2,4]triazin-4-amine], the IC50 was no more than 5 nM. Turning to `Cc1cc(Nc2nc(N3CCN(C(=O)C(O)c4ccc(F)cc4)CC3)nn3cccc23)n[nH]1` (centres unmarked) [1-(4-fluorophenyl)-2-(4-(4-((5-methyl-1H-pyrazol-3-yl)amino)pyrrolo[2,1-f][1,2,4]triazin-2-yl)-1-piperazinyl)-2-oxoethanol], the IC50 was no more than 5 nM.

In the case of `Cc1csc(C(=O)N2CCN(c3nc(Nc4cc(C)[nH]n4)c4cccn4n3)CC2)c1` [N-(5-methyl-1H-pyrazol-3-yl)-2-(4-((4-methyl-2-thienyl)carbonyl)-1-piperazinyl)pyrrolo[2,1-f][1,2,4]triazin-4-amine], the IC50 was no more than 5 nM. Regarding `CCCCC(=O)N1CCN(c2nc(Nc3cc(C)[nH]n3)c3cccn3n2)CC1` [N-(5-methyl-1H-pyrazol-3-yl)-2-(4-pentanoyl-1-piperazinyl)pyrrolo[2,1-f][1,2,4]triazin-4-amine], the IC50 was no more than 5 nM. `Cc1cc(Nc2nc(N3CCN(C(=O)[C@H](O)c4ccccc4)CC3)nn3cccc23)n[nH]1` [(1R)-2-(4-(4-((5-methyl-1H-pyrazol-3-yl)amino)pyrrolo[2,1-f][1,2,4]triazin-2-yl)-1-piperazinyl)-2-oxo-1-phenylethanol]: the IC50 was no more than 5 nM.

Take `Cc1cc(Nc2nc(N3CCN(C(=O)c4ccccc4F)CC3)nn3cccc23)n[nH]1` [2-(4-(2-fluorobenzoyl)-1-piperazinyl)-N-(5-methyl-1H-pyrazol-3-yl)pyrrolo[2,1-f][1,2,4]triazin-4-amine]: the IC50 was no more than 5 nM. Take `Cc1cc(Nc2nc(N3CCN(C(=O)c4cccnc4C)CC3)nn3cccc23)n[nH]1` [N-(5-methyl-1H-pyrazol-3-yl)-2-(4-((2-methyl-3-pyridinyl)carbonyl)-1-piperazinyl)pyrrolo[2,1-f][1,2,4]triazin-4-amine]: the IC50 is no more than 5 nM. Next, `Cc1cc(Nc2nc(N3CCN(C(=O)C4(c5c(F)cccc5Cl)CCCCC4)CC3)nn3cccc23)n[nH]1` [2-(4-((1-(2-chloro-6-fluorophenyl)cyclohexyl)carbonyl)-1-piperazinyl)-N-(5-methyl-1H-pyrazol-3-yl)pyrrolo[2,1-f][1,2,4]triazin-4-amine]: no more than 5 nM; `Cc1cc(Nc2nc(N3CCN(C(=O)c4cccc(F)c4)CC3)nn3cccc23)n[nH]1` [2-(4-(3-fluorobenzoyl)-1-piperazinyl)-N-(5-methyl-1H-pyrazol-3-yl)pyrrolo[2,1-f][1,2,4]triazin-4-amine]: no more than 5 nM. Consider `COc1cccc(F)c1C(=O)N1CCN(c2nc(Nc3cc(C)[nH]n3)c3cccn3n2)CC1` [2-(4-(2-fluoro-6-methoxybenzoyl)-1-piperazinyl)-N-(5-methyl-1H-pyrazol-3-yl)pyrrolo[2,1-f][1,2,4]triazin-4-amine], for which the IC50 is no more than 5 nM. On to `Cc1cc(Nc2nc(N3CCN(C(=O)Cc4ccccc4Cl)CC3)nn3cccc23)n[nH]1` [2-(4-((2-chlorophenyl)acetyl)-1-piperazinyl)-N-(5-methyl-1H-pyrazol-3-yl)pyrrolo[2,1-f][1,2,4]triazin-4-amine], for which the IC50 was no more than 5 nM.

`CC(=O)Nc1ccc(C(=O)N2CCN(c3nc(Nc4cc(C)[nH]n4)c4cccn4n3)CC2)cc1` [N-(4-((4-(4-((5-methyl-1H-pyrazol-3-yl)amino)pyrrolo[2,1-f][1,2,4]triazin-2-yl)-1-piperazinyl)carbonyl)phenyl)acetamide]: the IC50 was no more than 5 nM. As to `Cc1cc(Nc2nc(N3CCN(C(=O)c4ccc(F)cc4)CC3)nn3cccc23)n[nH]1` [2-(4-(4-fluorobenzoyl)-1-piperazinyl)-N-(5-methyl-1H-pyrazol-3-yl)pyrrolo[2,1-f][1,2,4]triazin-4-amine], the IC50 is no more than 5 nM. Turning to `CCC(C(=O)N1CCN(c2nc(Nc3cc(C)[nH]n3)c3cccn3n2)CC1)c1ccccc1` (centres unmarked) [N-(5-methyl-1H-pyrazol-3-yl)-2-(4-(2-phenylbutanoyl)-1-piperazinyl)pyrrolo[2,1-f][1,2,4]triazin-4-amine], the IC50 was no more than 5 nM.

For the compound `Cc1cc(Nc2nc(N3CCN(C(=O)Cc4cccc(F)c4)CC3)nn3cccc23)n[nH]1` [2-(4-((3-fluorophenyl)acetyl)-1-piperazinyl)-N-(5-methyl-1H-pyrazol-3-yl)pyrrolo[2,1-f][1,2,4]triazin-4-amine], the IC50 is no more than 5 nM.
